Assay results as given in patent publication US8445521B2, “Synergistic antimicrobial composition” (Dow GLobal Technologies LLC, priority 2009, dated 2013).

What was measured:
[1] = tested on: oil field isolated anaerobic consortium, mainly SRB; assay: Biocidal efficacy (MBC, complete bacterial kill) against anaerobic bacteria in contaminated salt solution; assay type: cell-based, sulfate reducing bacteria (SRB); conditions: 40° C., 24 hours
Description: Inside an anaerobic chamber (BACTRON anaerobic chamber), a deaerated sterile salt solution (3.1183 g of NaCl, 1.3082 mg of NaHCO3, 47.70 mg of KCl, 72.00 mg of CaCl2, 54.49 mg of MgSO4, 172.28 mg of Na2SO4, 43.92 mg of Na2CO3 in 1 L water) was contaminated with an oil field isolated anaerobic consortium, mainly SRB, at final bacterial concentrations of 10^6 to 10^7 CFU/mL. The aliquots of this contaminated water were then treated with NaOPP and DMOZ, or the NaOPP/DMOZ combination, NaOPP and Tris Nitro, or the NaOPP/Tris Nitro combination, NaOPP and HHT, or the NaOPP/HHT combination at different active concentration levels. […] Tables 1-3 summarize the efficacy of each biocide and their blends, and the Synergy Index of each combination.

[2] = tested on: Pseudomonas aeruginosa, ATCC 10145 and Staphylococcus aureus, ATCC 6538; assay: Biocidal efficacy (MBC, complete bacteria kill) against aerobic bacteria in contaminated NaCl solution; assay type: cell-based; conditions: 37° C., 24 hours
Description: A sterile NaCl solution (0.85%) was contaminated with Pseudomonas aeruginosa, ATCC 10145 and Staphylococcus aureus, ATCC 6538 at final bacterial concentration of ca. 10^6 CFU/mL. The aliquots of this contaminated water were then treated with NaOPP and Tris Nitro, or the NaOPP/Tris Nitro combination, NaOPP and DMOZ or the NaOPP/DMOZ combination at different active concentration levels. After the mixtures were incubated at 37° C. for 24 hours, the biocidal efficacy was determined by minimum tested biocide concentration for complete bacteria kill in the aliquots. Tables 4 and 5 summarize the efficacy of each biocide and their blends, and the Synergy Index of each combination.

[3] = DMOZ alone or DMOZ part of NaOPP/DMOZ blend
[4] = NaOPP alone or NaOPP part of NaOPP/DMOZ blend
[5] = NaOPP alone or NaOPP part of NaOPP/Tris Nitro blend
[6] = Tris Nitro alone or Tris Nitro part of NaOPP/Tris Nitro blend

## CC1(C)COCN1 [DMOZ, 4,4-dimethyloxazolidine]
[1]; [3]
  MBC (active ppm) DMOZ: 74.1 active ppm
[2]; [3]
  Average MBC (active ppm) DMOZ: 86.1 active ppm

## OCCN1CN(CCO)CN(CCO)C1 [HHT, hexahydro-1,3,5-tris(2-hydroxyethyl)-s-triazine]
[1]; HHT alone or HHT part of NaOPP/HHT blend
  MBC (active ppm) HHT: 111.1 active ppm

## [Na+].[O-]c1ccccc1-c1ccccc1 [NaOPP, sodium o-phenylphenylate]
[1]; [4]
  MBC (active ppm) NaOPP: 333.3 active ppm
[1]; NaOPP alone or NaOPP part of NaOPP/HHT blend
  MBC (active ppm) NaOPP: 500 active ppm
[1]; [5]
  MBC (active ppm) NaOPP: 500 active ppm
[2]; [4]
  Average MBC (active ppm) NaOPP: 292.9 active ppm
[2]; [5]
  MBC (active ppm) NaOPP: 266.3 active ppm

## O=[N+]([O-])C(CO)(CO)CO [Tris Nitro, tris(hydroxymethyl)nitromethane]
[1]; [6]
  MBC (active ppm) Tris Nitro: 44.4 active ppm
[2]; [6]
  MBC (active ppm) Tris Nitro: 25.1 active ppm
